Measured values published in article PMC9101087, “A Sensitive LC-MS/MS Method for the Simultaneous Determination of Two Thia-Analogous Indirubin N-Glycosides and Indirubin-3′-Monoxime in Plasma and Cell Culture Medium” (Molecules, 2022).

Key:
[1] = Storage stability in human plasma, LC-MS/MS after plasma precipitation; format: in vitro ADME; conditions: long-term freezing
[2] = Storage stability in human plasma, LC-MS/MS after plasma extraction; format: in vitro ADME; conditions: for Stability 4 °C / Stability AS (autosampler) / Stability −20 °C / Stability BT (benchtop): 24 h; for Stability FT (freeze-thaw): freeze-thaw cycles; for Stability −80 °C 90 d: long-term freezing; for Stability BT (benchtop): room temperature
Protocol: (§1) To assess stability, low and high concentrations of all analytes were subjected to different storage conditions. […] For determination of long-term stability, samples were stored in either plasma or DMEM at –80 °C for 90 and 91 days, respectively. To measure short-term stability, samples were stored at room temperature, in an autosampler, at 4 °C, and at –20 °C for 24 h. In addition, freeze-thaw cycles were performed according to FDA guidance for the standard solutions. For comparison, at least three freshly prepared samples were prepared for each concentration level. With the exception of autosampler stability, the internal standard was always added to all samples before sample processing was started.
(§2) Liquid-liquid extraction was performed identically for plasma and DMEM samples. After addition of the 1.0 µM internal standard, 50 µL of 0.8 M alkaline carbonate buffer was added. The extraction was performed once with 890 µL ethyl acetate. Tubes were then shaken for 10 min at 1400 rpm using a Thermomixer 5436 (Eppendorf AG, Hamburg, Germany) followed by centrifugation for 5 min at 14,000 rpm using a Centrifuge 5415 C (Eppendorf AG, Hamburg, Germany). Subsequently, 850 µL of the supernatant was transferred to a new tube and evaporated to dryness for 35 min at 35 °C (8 min heating time) using a SpeedVac SPD130DLX (Thermo Fisher Scientific, Asheville, NC, USA). Reconstitution was performed with 200 µL of a acetonitrile/water/H2SO4 [3/0.5/0.5] mixture, shaken at 1400 rpm for 5 min, and centrifuged again at 14,000 rpm for 5 min. Finally, 155 µL of the sample was transferred to an LC vial and analyzed.
(§3) To assess stability, low and high concentrations of all analytes were exposed to different storage conditions. To determine long-term stability, samples were stored in either plasma or DMEM at −80 °C for 90 and 91 days, respectively. To determine short-term stability, samples were stored for 24 h on the bench at room temperature, in the autosampler, at 4 °C, and at −20 °C. In addition, freeze-thaw cycles were performed for the standard solutions according to FDA guidance. At least three freshly prepared samples per concentration level were prepared for comparison. With the exception of the stability test in the autosampler, the internal standard was always added to all samples before sample processing was started. However, to avoid concentration fluctuations due to possible degradation of the analytes, stock solutions were prepared twice a week and stored at −20 °C. Each storage condition was examined in the dark. For all conditions studied, n = 3–6 replicates were prepared.

[3] = Storage stability in DMEM, LC-MS/MS after DMEM extraction; format: physicochemical; conditions: for Stability 4 °C / Stability AS (autosampler) / Stability −20 °C / Stability BT (benchtop): 24 h; for Stability FT (freeze-thaw): freeze-thaw cycles; for Stability −80 °C 91 d: long-term freezing; for Stability BT (benchtop): room temperature
Protocol: as §1
Regarding the medium, validation procedures were performed with high-glucose DMEM supplemented with 100 U/mL penicillin and 100 μg/mL streptomycin, but not with FBS. With the exception of selectivity, where both media (GlutaMAX™-I or UltraGlutamine^TM I supplement) were tested, only Gibco™ DMEM with GlutaMAX™-I was used for all other analytical procedures.
as §2, §3

Stability −80 °C 91 d ([1]; 2.0 nM)	Stability −80 °C 91 d ([1]; 167 nM)	Stability 4 °C ([2]; 3.0 nM)	Stability AS (autosampler) ([2]; 3.0 nM)	Stability −20 °C ([2]; 3.0 nM)	Stability FT (freeze-thaw) ([2]; 3.0 nM)	Stability −80 °C 90 d ([2]; 3.0 nM)	Stability BT (benchtop) ([2]; 3.0 nM)	Stability 4 °C ([2]; 250 nM)	Stability AS (autosampler) ([2]; 250 nM)	Stability −20 °C ([2]; 250 nM)	Stability FT (freeze-thaw) ([2]; 250 nM)	Stability −80 °C 90 d ([2]; 250 nM)	Stability BT (benchtop) ([2]; 250 nM)	Stability 4 °C ([3]; 3.0 nM)	Stability AS (autosampler) ([3]; 3.0 nM)	Stability −20 °C ([3]; 3.0 nM)	Stability FT (freeze-thaw) ([3]; 3.0 nM)	Stability −80 °C 91 d ([3]; 3.0 nM)	Stability BT (benchtop) ([3]; 3.0 nM)	Structure (SMILES)	further results
105.1 ± 12.4%	108.2 ± 3.7%	85.5 ± 2.2%	71.8 ± 2.7%	86.4 ± 3.5%	99.4 ± 4.0%	102.5 ± 5.2%	64.4 ± 3.6%	94.3 ± 5.7%	73.1 ± 2.7%	101.8 ± 3.2%	99.1 ± 2.0%	101.7 ± 1.1%	76.0 ± 2.6%	98.3 ± 2.2%	75.6 ± 5.8%	86.8 ± 1.8%	99.4 ± 4.0%	93.2 ± 6.9%	115.3 ± 1.8%	O=C1/C(=C2/C(=O)N([C@@H]3O[C@H](CO)[C@@H](O)[C@H](O)[C@@H]3O)c3ccccc32)Sc2ccccc21 [KD85, 3-[3′-oxo-benzo[b]thiophene-2′-(Z)-ylidene]-1-(β-D-mannopyranosyl)-oxindole]	Stability 4 °C ([3]; 40 nM): 80.5 ± 1.8%; Stability AS (autosampler) ([3]; 40 nM): 71.6 ± 1.9%; Stability −20 °C ([3]; 40 nM): 81.9 ± 3.9%; Stability FT (freeze-thaw) ([3]; 40 nM): 99.9 ± 3.3%; Stability −80 °C 91 d ([3]; 40 nM): 92.7 ± 5.7%; Stability BT (benchtop) ([3]; 40 nM): 100.5 ± 1.9%
96.7 ± 8.6%	106.0 ± 1.4%	79.3 ± 2.4%	80.8 ± 3.0%	101.4 ± 3.4%	98.3 ± 5.4%	100.1 ± 8.4%	64.4 ± 4.6%	94.1 ± 5.6%	73.7 ± 3.3%	100.1 ± 0.7%	99.7 ± 2.6%	100.9 ± 3.6%	77.8 ± 2.7%	81.4 ± 3.3%	101.2 ± 7.4%	87.7 ± 3.2%	98.3 ± 5.4%	97.8 ± 6.0%	104.9 ± 4.0%	O=C1/C(=C2/C(=O)N([C@@H]3O[C@H](CO)[C@@H](O)[C@H](O)[C@H]3O)c3ccccc32)Sc2ccccc21 [KD87, 3-[3′-oxo-benzo[b]thiophen-2′-(Z)-ylidene]-1-(β-D-glucopyranosyl)-oxindole]	Stability 4 °C ([3]; 40 nM): 84.5 ± 2.1%; Stability AS (autosampler) ([3]; 40 nM): 81.7 ± 3.7%; Stability −20 °C ([3]; 40 nM): 84.2 ± 2.6%; Stability FT (freeze-thaw) ([3]; 40 nM): 101.9 ± 5.4%; Stability −80 °C 91 d ([3]; 40 nM): 92.3 ± 7.8%; Stability BT (benchtop) ([3]; 40 nM): 98.3 ± 1.1%
